Assay results as given in PubChem BioAssay AID256 (DTP/NCI, 2004).
Several values for one entry are separate records, joined by “and”; a condition that tells them apart may be missing. Equal values may be shown once. Toxic doses and inconclusive results are not listed. Rule for the calls: active = survival T/C of 150% or more; inactive = T/C below 125% in these data.

Test system: CD2F1 mice, L1210 leukemia ip, survival T/C
Test: NCI In Vivo Anticancer Drug Screen. Data for tumor model L1210 Leukemia (intraperitoneal) in CD2F1 (CDF1) mice
Settings: endpoint: mean survival time, higher = longer survival
How it was run: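 Antitumor effect is scored in animals hosting a serially transplanted tumor. Values compare compound-dosed animals against vehicle-only controls as a simple quotient.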

[1] = dose: 6.25 mg/kg/injection, schedule: Q04DX003 (ip), vehicle: saline
[2] = dose: 25.0 mg/kg/injection, schedule: Q04DX003 (ip), vehicle: saline
[3] = dose: 50.0 mg/kg/injection, schedule: Q04DX003 (ip), vehicle: saline
[4] = dose: 100.0 mg/kg/injection, schedule: Q04DX003 (ip), vehicle: saline
[5] = dose: 100.0 mg/kg/injection, schedule: Q01DX009 (ip), vehicle: saline with Tween-80
[6] = dose: 200.0 mg/kg/injection, schedule: Q01DX009 (ip), vehicle: saline with Tween-80
[7] = dose: 50.0 mg/kg/injection, schedule: Q01DX009 (ip), vehicle: saline with Tween-80
[8] = dose: 100.0 mg/kg/injection, schedule: Q04DX003 (ip), vehicle: saline with Tween-80
[9] = dose: 200.0 mg/kg/injection, schedule: Q04DX003 (ip), vehicle: saline with Tween-80
[10] = dose: 100.0 mg/kg/injection, schedule: Q04DX003 (ip), vehicle: Klucel (hydroxypropylcellulose) (HPC)
[11] = dose: 200.0 mg/kg/injection, schedule: Q04DX003 (ip), vehicle: Klucel (hydroxypropylcellulose) (HPC)
[12] = dose: 400.0 mg/kg/injection, schedule: Q04DX003 (ip), vehicle: Klucel (hydroxypropylcellulose) (HPC)
[13] = dose: 400.0 mg/kg/injection, schedule: Q04DX003 (ip), vehicle: saline with Tween-80
[14] = dose: 25.0 mg/kg/injection, schedule: Q04DX002 (ip), vehicle: saline with Tween-80
[15] = dose: 200.0 mg/kg/injection, schedule: Q04DX003 (ip), vehicle: saline
[16] = dose: 12.5 mg/kg/injection, schedule: Q04DX003 (ip), vehicle: saline
[17] = dose: 12.5 mg/kg/injection, schedule: Q04DX003 (ip), vehicle: saline with Tween-80
[18] = dose: 25.0 mg/kg/injection, schedule: Q04DX003 (ip), vehicle: saline with Tween-80
[19] = dose: 50.0 mg/kg/injection, schedule: Q04DX003 (ip), vehicle: saline with Tween-80

Measured: T/C

Cn1cc(C2OC(CO)C(O)C2O)c(=O)[nH]c1=O (centres undefined)
inactive: dose: 12.5 mg/kg/injection, schedule: Q01DX005 (ip), vehicle: water 97 % of control | dose: 25.0 mg/kg/injection, schedule: Q01DX005 (ip), vehicle: water 103 % of control | dose: 50.0 mg/kg/injection, schedule: Q01DX005 (ip), vehicle: water 103 % of control | dose: 100.0 mg/kg/injection, schedule: Q01DX005 (ip), vehicle: water 100 % of control | dose: 200.0 mg/kg/injection, schedule: Q01DX005 (ip), vehicle: water 103 % of control

Cc1c2cc3c(cc2cc2c4cc5c(cc4cc[n+]12)OCO5)OCO3 (tested in a mixture with another compound)
inactive: [1] 116 % of control and 121 % of control | dose: 18.75 mg/kg/injection, schedule: Q04DX003 (ip), vehicle: saline 95 % of control | [2] 115 % of control and 90 % of control

O=C(CCl)Nc1ccc([N+](=O)[O-])cc1
inactive: dose: 400.0 mg/kg/injection, schedule: Q04DX002 (ip), vehicle: saline with Tween-80 87 % of control

CC(CC(C)O)=NCCN=C(C)CC(C)O.[Ni] (centres undefined)
inactive: dose: 1.5 mg/kg/injection, schedule: Q01DX009 (ip), vehicle: saline with Tween-80 103 % of control | dose: 3.0 mg/kg/injection, schedule: Q01DX009 (ip), vehicle: saline with Tween-80 101 % of control | dose: 6.0 mg/kg/injection, schedule: Q01DX009 (ip), vehicle: saline with Tween-80 105 % of control | dose: 12.5 mg/kg/injection, schedule: Q01DX001 (ip), vehicle: saline 102 % of control | dose: 25.0 mg/kg/injection, schedule: Q01DX001 (ip), vehicle: saline 112 % of control

CN(C)/C=N/N1CCCCCC1
inactive: [2] 103 % of control | [3] 97 % of control | [4] 96 % of control

COc1cc(C(=O)NNC(=O)c2ccc(Cl)cc2)cc(OC)c1OC
inactive: [5] 94 % of control | [6] 86 % of control

CSc1nc(C)cc(Cl)n1
inactive: [7] 94 % of control | [5] 92 % of control | [8] 103 % of control | [6] 95 % of control | [9] 97 % of control

O=[N+]([O-])c1ccc(N/N=C/c2ccnc3ccccc23)cc1
inactive: [10] 89 % of control | [11] 91 % of control | [12] 97 % of control

CCOc1cccc(Cl)n1
inactive: [5] 94 % of control | [8] 101 % of control | [6] 102 % of control | [9] 98 % of control | [13] 98 % of control

CCOC(=O)N/N=C/C(Br)=C\c1ccccc1
inactive: dose: 12.5 mg/kg/injection, schedule: Q01DX009 (ip), vehicle: saline with Tween-80 97 % of control | dose: 25.0 mg/kg/injection, schedule: Q01DX009 (ip), vehicle: saline with Tween-80 92 % of control | [7] 92 % of control

Nc1[nH]c(=S)[nH]c(=O)c1N
inactive: dose: 6.25 mg/kg/injection, schedule: Q04DX002 (ip), vehicle: saline with Tween-80 102 % of control | dose: 12.5 mg/kg/injection, schedule: Q04DX002 (ip), vehicle: saline with Tween-80 102 % of control | [14] 102 % of control

O=S(=O)(Cl)c1ccc(-c2ccc(S(=O)(=O)Cl)cc2)cc1
inactive: [10] 95 % of control | [11] 106 % of control | [12] 103 % of control

[Pt+2].[S-]c1ccccc1.[S-]c1ccccc1.c1ccc([PH+](c2ccccc2)c2ccccc2)cc1.c1ccc([PH+](c2ccccc2)c2ccccc2)cc1
inactive: dose: 3.13 mg/kg/injection, schedule: Q04DX003 (sc), vehicle: distilled water + Tween-80 97 % of control | dose: 6.25 mg/kg/injection, schedule: Q04DX003 (sc), vehicle: distilled water + Tween-80 110 % of control | dose: 12.5 mg/kg/injection, schedule: Q04DX003 (sc), vehicle: distilled water + Tween-80 103 % of control | dose: 25.0 mg/kg/injection, schedule: Q04DX003 (sc), vehicle: distilled water + Tween-80 97 % of control | dose: 50.0 mg/kg/injection, schedule: Q04DX003 (sc), vehicle: distilled water + Tween-80 91 % of control | dose: 100.0 mg/kg/injection, schedule: Q04DX003 (sc), vehicle: distilled water + Tween-80 89 % of control

CC(N)C(=O)NC(CO)C(=O)O (centres undefined)
inactive: dose: 100.0 mg/kg/injection, schedule: Q01DX009 (ip), vehicle: saline 103 % of control | [4] 97 % of control | dose: 200.0 mg/kg/injection, schedule: Q01DX009 (ip), vehicle: saline 95 % of control | [15] 93 % of control | dose: 400.0 mg/kg/injection, schedule: Q01DX009 (ip), vehicle: saline 97 % of control | dose: 400.0 mg/kg/injection, schedule: Q04DX003 (ip), vehicle: saline 93 % of control

[Cl][Pt+2][Cl].[NH-]c1ccccc1-c1ccccc1[NH-]
inactive: dose: 3.13 mg/kg/injection, schedule: Q04DX003 (ip), vehicle: saline 104 % of control | [1] 109 % of control | [16] 120 % of control | [2] 113 % of control | [3] 109 % of control | [4] 94 % of control

CCOC(=O)/N=c1\ccccn1O
inactive: dose: 75.0 mg/kg/injection, schedule: Q01DX001 (ip), vehicle: saline 101 % of control | dose: 150.0 mg/kg/injection, schedule: Q01DX001 (ip), vehicle: saline 101 % of control | dose: 300.0 mg/kg/injection, schedule: Q01DX001 (ip), vehicle: saline 105 % of control

Cc1cc(N2CCC(N3CCCC3)CC2)nc(/N=C(\N)Nc2ccc(Cl)c(Cl)c2)n1
inactive: [17] 98 % of control | [18] 101 % of control | [19] 86 % of control

CCOC(=O)N1C2c3ccccc3C(c3ccccc32)N1C(=O)OCC
inactive: [5] 94 % of control | [8] 95 % of control | [6] 89 % of control | [9] 98 % of control | [13] 93 % of control

C=C1C(=O)OC2/C=C(\C)C3OC3/C=C(/C(=O)OC)C(O)C(OC(=O)C3(C)OC3C)C12 (centres undefined)
inactive: dose: 100.0 mg/kg/injection, schedule: Q01DX001 (ip), vehicle: saline with Tween-80 104 % of control

O=C(NCc1ccccc1)C1C2CC3OC(=O)C1C3C2 (centres undefined)
inactive: [17] 112 % of control | [16] 106 % of control | [18] 114 % of control | [2] 108 % of control | [19] 114 % of control | [3] 110 % of control | [8] 114 % of control | [4] 108 % of control

CC(=O)Nc1cccc(N)c1
inactive: [4] 102 % of control

CCC(=O)NC1=C(Cl)C(=O)c2ccccc2C1=O
inactive: dose: 5.0 mg/kg/injection, schedule: Q01DX001 (ip), vehicle: saline 91 % of control | dose: 10.0 mg/kg/injection, schedule: Q01DX001 (ip), vehicle: saline 101 % of control | dose: 20.0 mg/kg/injection, schedule: Q01DX001 (ip), vehicle: saline 97 % of control

O=C(Nc1ccc([N+](=O)[O-])cc1)OC1CCS(=O)(=O)C1 (centres undefined)
inactive: dose: 75.0 mg/kg/injection, schedule: Q04DX003 (ip), vehicle: saline 102 % of control | dose: 150.0 mg/kg/injection, schedule: Q04DX003 (ip), vehicle: saline 98 % of control | dose: 300.0 mg/kg/injection, schedule: Q04DX003 (ip), vehicle: saline 101 % of control

Cc1ccc(C)c(NC(=O)NCc2ccccc2)c1
inactive: [5] 97 % of control | [6] 106 % of control

COc1ccc2c(c1)N(CC(C)C[N+](C)(C)CCCCCCCCCCCCCCCC[N+](C)(C)CC(C)CN1c3ccccc3Sc3ccc(OC)cc31)c1ccccc1S2 (centres undefined)
inactive: [4] 91 % of control | [15] 91 % of control

CC1=C(N)C(=O)N(C)C1=O
inactive: [14] 98 % of control | dose: 50.0 mg/kg/injection, schedule: Q04DX002 (ip), vehicle: saline with Tween-80 95 % of control | dose: 100.0 mg/kg/injection, schedule: Q04DX002 (ip), vehicle: saline with Tween-80 98 % of control | dose: 200.0 mg/kg/injection, schedule: Q04DX002 (ip), vehicle: saline with Tween-80 98 % of control
